Target: T1, HCV polymerase (Hepatitis C virus genotype 1b, UniProt P26663)
T1 construct: 2.5 pmoles (0.15 μg) HCV polymerase protein in a final volume of 75 μL
Experiment: HCV Polymerase Inhibition Assay
Assay type: biochemical
Settings: @ 50 μM compound; given where it was impractical to calculate an IC50
Protocol: HCV Polymerase Inhibition Assay
The above-described compounds were tested for activity with HCV polymerase. Recombinant HCV polymerase was tested for its ability to perform primer/template-directed transcription in assays that contained 30 mM tris-HCl pH 7.2, 10 mM MgCl2, 20 mM NaCl, 1 mM Dithiothreitol (DTT), 0.05% Tween-20, 1% glycerol, 5 pmoles biotin-dG12 (primer), 0.5 pmoles poly(rC)300 (template), 1 μM GTP, 0.1-0.3 uCi α-^32P-GTP, and 2.5 pmoles (0.15 μg) HCV polymerase protein in a final volume of 75 μL. Reactions were initiated by addition of enzyme and incubated 30 minutes at 30° C. Reactions were stopped by addition of 33 mM EDTA, and polynucleotide products were collected by filtration through Diethylaminoethyl (DE) Filtermat papers (Wallac). Unincorporated triphosphate was removed by washing the filters with 5% dibasic sodium phosphate. The filters were counted in a Packard Tri-Lux Microbeta scintillation counter (Packard Bioscience, Meriden, Conn.). Compounds to be tested were added at various concentrations, e.g., 1 μm to 50 μm, from stocks in 10% DMSO-water (final DMSO is 1% in reaction).
IC50 values were estimated from the primary cpm data (collected in triplicate) using the formula: cpm (I)=cpm (no inhibitor)(1−([I]/([I]+IC50))). An IC50 value represents the concentration (in μM) of a compound that provides 50% inhibition of polymerase-directed transcription in the above assay. A percent inhibition value is expressed for a compound where it was impractical to calculate an IC50 value with available data. If the IC50 estimated by the above equation was less than 200 nM, it was recalculated using the following equation, which takes into account the enzyme concentration (30 nM) in the assay: cpm(I)=cpm(no inhibitor)(1−((((I+IC50+30e−9)−sqrt(((I+IC50+30e−9)^2)−4×30e−9×1)))/((2) (30e−9))). Curve fitting was performed using the program KaleidaGraph (Synergy Software, Reading, Pa.).

T1 sequence (P26663 2420-3010): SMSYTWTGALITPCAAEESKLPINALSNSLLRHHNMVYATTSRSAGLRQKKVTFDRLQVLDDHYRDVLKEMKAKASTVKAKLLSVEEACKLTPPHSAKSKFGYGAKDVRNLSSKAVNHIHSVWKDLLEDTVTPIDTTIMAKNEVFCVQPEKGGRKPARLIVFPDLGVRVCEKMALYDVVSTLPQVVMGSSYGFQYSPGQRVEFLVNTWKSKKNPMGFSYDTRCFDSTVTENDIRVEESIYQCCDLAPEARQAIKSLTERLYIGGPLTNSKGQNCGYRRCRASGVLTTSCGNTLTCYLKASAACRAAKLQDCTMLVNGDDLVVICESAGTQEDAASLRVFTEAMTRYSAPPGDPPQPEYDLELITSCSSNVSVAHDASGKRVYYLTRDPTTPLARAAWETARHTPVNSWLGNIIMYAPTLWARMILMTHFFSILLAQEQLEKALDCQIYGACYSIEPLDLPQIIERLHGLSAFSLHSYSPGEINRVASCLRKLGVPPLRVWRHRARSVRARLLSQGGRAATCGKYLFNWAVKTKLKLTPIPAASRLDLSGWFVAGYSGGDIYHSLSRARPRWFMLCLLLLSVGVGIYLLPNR

Row | Structure (SMILES) | inhibition at 50 µM [%]
1 | CCOC1=CC(=O)OC(CCC#Cc2cccc(O)c2)(C2CCCC2)C1 (centres unmarked) [Example 15, 6-cyclopentyl-4-ethoxy-6-[4-(3-hydroxy-phenyl)-but-3-ynyl]-5,6-dihydro-pyran-2-one] | 27

Same assay, conditions: recombinant HCV polymerase, primer/template-directed transcription (biotin-dG12/poly(rC)300), 30 minutes at 30° C.

Row | Structure (SMILES) | IC50 [µM]
2 | COc1ccc(C#CC2(C3CCCC3)CC(=O)CC(=O)O2)cc1 (centres unmarked) [Example 1, 6-cyclopentyl-6-[(4-methoxyphenyl)ethynyl]dihydro-2H-pyran-2,4(3H)-dione] | 12
3 | O=C1CC(=O)OC(C#Cc2nccs2)(C2CCCC2)C1 (centres unmarked) [Example 2, Cyclopentyl-6-(1,3-thiazol-2-ylethynyl)dihydro-2H-pyran-2,4(3H)-dione] | 2.1
4 | CC(C)c1cccc(C#CC2(C3CCCC3)CC(=O)CC(=O)O2)c1 (centres unmarked) [Example 3] | 8.5
5 | COC(=O)Cc1ccc(C#CC2(C3CCCC3)CC(=O)CC(=O)O2)cc1 (centres unmarked) [Example 4] | 64.6
6 | C#CCCC1(C2CCCC2)CC(=O)CC(=O)O1 (centres unmarked) [Example 5, 6-but-3-ynyl-6-cyclopentyl-dihydro-pyran-2,4-dione] | 74
7 | O=C1CC(=O)OC(CCC#Cc2ccccc2)(C2CCCC2)C1 (centres unmarked) [Example 6, 6-cyclopentyl-6-(4-phenyl-but-3-ynyl)-dihydro-pyran-2,4-dione] | 8.29
8 | COc1cccc(C#CCCC2(C3CCCC3)CC(=O)CC(=O)O2)c1 (centres unmarked) [Example 7, 6-Cyclopentyl-6-[4-(3-methoxy-phenyl)-but-3-ynyl]-dihydro-pyran-2,4-dione] | 12.1
9 | O=C1CC(=O)OC(CCC#Cc2ccc3scnc3c2)(C2CCCC2)C1 (centres unmarked) [Example 8, 6-(4-Benzothiazol-5-yl-but-3-ynyl)-6-cyclopentyl-dihydro-pyran-2,4-dione] | 4.5
10 | O=C1CC(=O)OC(CCC#Cc2ccc3c(c2)OCCO3)(C2CCCC2)C1 (centres unmarked) [Example 9, 6-Cyclopentyl-6-[4-(2,3-dihydro-benzo[1,4]dioxin-6-yl)-but-3-ynyl]-dihydro-pyran-2,4-dione] | 11.7
11 | O=C1CC(=O)OC(CCC#Cc2ccc3c(c2)OCO3)(C2CCCC2)C1 (centres unmarked) [Example 10, 6-(4-Benzo[1,3]dioxol-5-yl-but-3-ynyl)-6-cyclopentyl-dihydro-pyran-2,4-dione] | 10.7
12 | CC(=O)Nc1ccc(C#CCCC2(C3CCCC3)CC(=O)CC(=O)O2)cn1 (centres unmarked) [Example 11, N-{5-[4-(2-Cyclopentyl-4,6-dioxo-tetrahydro-pyran-2-yl)-but-1-ynyl]-pyridin-2-yl}-acetamide] | 67
13 | COC(=O)Cc1ccc(C#CCCC2(C3CCCC3)CC(=O)CC(=O)O2)cc1 (centres unmarked) [Example 12, {4-[4-(2-cyclopentyl-4,6-dioxo-tetrahydro-pyran-2-yl)-but-1-ynyl]-phenyl}-acetic acid methyl ester] | 10.2
14 | O=C1CC(=O)OC(CCC#Cc2cccc(O)c2)(C2CCCC2)C1 (centres unmarked) [Example 13, 6-Cyclopentyl-6-[4-(3-hydroxy-phenyl)-but-3-ynyl]-dihydro-pyran-2,4-dione] | 4.5
15 | O=C1CC(=O)OC(CCC#Cc2ccc3ocnc3c2)(C2CCCC2)C1 (centres unmarked) [Example 14, 6-(4-benzooxazol-5-yl-but-3-ynyl)-6-cyclopentyl-dihydro-pyran-2,4-dione] | 5.8
16 | C#CCCC1(C2CCCC2)CC(=O)C(Sc2ccccc2)C(=O)O1 (centres unmarked) [Example 16, 6-But-3-ynyl-6-cyclopentyl-3-phenylsulfanyl-dihydro-pyran-2,4-dione] | 80
17 | O=C1CC(CCC#Cc2cccc(O)c2)(C2CCCC2)OC(=O)C1Sc1ccccc1 (centres unmarked) [Example 17, 6-Cyclopentyl-6-[4-(3-hydroxy-phenyl)-but-3-ynyl]-3-phenylsulfanyl-dihydro-pyran-2,4-dione] | 7.6

Reference: patent US6878727B2 (Agouron Pharmaceuticals, Inc., priority 2002, dated 2005)
